Measurements published in patent publication US10477863B2, “Use of herbicidal compositions for controlling unwanted vegetation” (BASF SE, priority 2015, dated 2019).

Test system: Amaranthus palmeri
Assay: Field test, post-emergence spray: visual injury of Palmer amaranth rated 0 to 100
Assay type: in vivo
Details: 3 days after treatment, 0.25% non-ionic surfactant
Description: Dicamba was applied as Engenia™ herbicide [BAPMA salt-(bis(3-aminopropyl)methylamine))], while 2,4-DB was applied as the commercially available Butyrac® 200 (dimethylamine salt). Herbicides were applied at an appropriate weight of each product dissolved in 1 liter of water. All herbicide treatments were applied with 0.25% by volume of a non-ionic surfactant (Induce®; an adjuvant composition consisting of alkyl aryl polyoxyalkane ethers, alkanolamides, dimethyl siloxane and free fatty acids). The spray solution was applied by a CO2 powered backpack sprayer delivering the spray solution at a rate of 185 liter/ha. The spray solution was applied to a field naturally populated with Palmer amaranth (Amaranthus palmeri) with an average height of 4-6 inches in height, however, plants both larger and smaller plants were in the field at the time of application as well. Palmer amaranth was assessed for visual injury 3 days after treatment and injury was rated on a scale from 0 to 100, whereby 0 equals no herbicidal response and 100 equals complete control of the Palmer amaranth.

| Compound | herbicidal activity against Amaranthus palmeri (% control), found (dicamba 420 g/ha a.i., Exp. No. 1) [% control] | herbicidal activity against Amaranthus palmeri (% control), found (2,4-DB 17.5 g/ha a.i., Exp. No. 2) [% control] | herbicidal activity against Amaranthus palmeri (% control), found (2,4-DB 35 g/ha a.i., Exp. No. 3) [% control] | herbicidal activity against Amaranthus palmeri (% control), found (2,4-DB 52.5 g/ha a.i., Exp. No. 4) [% control] |
| --- | --- | --- | --- | --- |
| COc1c(Cl)ccc(Cl)c1C(=O)O [dicamba, 3,6-Dichloro-2-methoxybenzoic acid] | 60 | – | – | – |
| O=C(O)CCCOc1ccc(Cl)cc1Cl [2,4-DB, 4-(2,4-Dichlorophenoxy)butanoic acid] | – | 0 | 5 | 15 |
